Test results from ChEMBL document CHEMBL1909046, “DrugMatrix in vitro pharmacology data”.

Key:
[1] = DRUGMATRIX: Serotonin (5-Hydroxytryptamine) 5-HT3 radioligand binding (ligand: [3H] GR-65630); assay type: cell membranes, Membrane; conditions: hek293; Not Active = under 50% inhibition at 10 µM
[2] = target: T1, Cathepsin G (Homo sapiens, UniProt P08311); assay type: tissue-based; conditions: neutrophil;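 note: inhibition of Cathepsin G enzyme activity, tested on an AMC-conjugated peptide substrate; in other assays of this panel Not Active means under 50% inhibition at 10 µM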
T1 sequence (P08311 whole entry): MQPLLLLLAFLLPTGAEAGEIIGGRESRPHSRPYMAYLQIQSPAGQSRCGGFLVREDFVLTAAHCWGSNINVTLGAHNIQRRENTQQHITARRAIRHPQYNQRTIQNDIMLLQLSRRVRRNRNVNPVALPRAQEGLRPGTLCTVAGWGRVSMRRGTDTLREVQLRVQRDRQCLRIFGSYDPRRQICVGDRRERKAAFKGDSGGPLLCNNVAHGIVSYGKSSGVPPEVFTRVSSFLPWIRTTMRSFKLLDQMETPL

[3] = target: T2, D(4) dopamine receptor (Homo sapiens, UniProt P21917); assay: DRUGMATRIX: Dopamine D4.2 radioligand binding (ligand: [3H] Spiperone); assay type: cell membranes, Membrane; conditions: cho-k1; Not Active = under 50% inhibition at 10 µM
T2 sequence (P21917 whole entry): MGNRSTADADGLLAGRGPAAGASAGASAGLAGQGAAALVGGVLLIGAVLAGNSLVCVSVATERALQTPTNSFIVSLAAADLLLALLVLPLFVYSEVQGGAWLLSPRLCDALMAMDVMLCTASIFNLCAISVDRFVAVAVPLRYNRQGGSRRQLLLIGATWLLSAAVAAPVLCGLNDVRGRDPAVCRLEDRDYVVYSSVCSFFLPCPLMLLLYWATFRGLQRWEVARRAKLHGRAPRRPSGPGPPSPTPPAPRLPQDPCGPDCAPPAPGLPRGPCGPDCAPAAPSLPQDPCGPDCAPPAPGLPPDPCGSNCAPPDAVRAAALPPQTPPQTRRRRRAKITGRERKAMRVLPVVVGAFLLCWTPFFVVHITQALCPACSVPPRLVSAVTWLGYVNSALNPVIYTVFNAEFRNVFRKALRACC

[4] = target: T3, B2 bradykinin receptor (Homo sapiens, UniProt P30411); assay type: cell membranes, Membrane; conditions: chem-1; note: in other assays of this panel Not Active means under 50% inhibition at 10 µM
T3 sequence (P30411 whole entry): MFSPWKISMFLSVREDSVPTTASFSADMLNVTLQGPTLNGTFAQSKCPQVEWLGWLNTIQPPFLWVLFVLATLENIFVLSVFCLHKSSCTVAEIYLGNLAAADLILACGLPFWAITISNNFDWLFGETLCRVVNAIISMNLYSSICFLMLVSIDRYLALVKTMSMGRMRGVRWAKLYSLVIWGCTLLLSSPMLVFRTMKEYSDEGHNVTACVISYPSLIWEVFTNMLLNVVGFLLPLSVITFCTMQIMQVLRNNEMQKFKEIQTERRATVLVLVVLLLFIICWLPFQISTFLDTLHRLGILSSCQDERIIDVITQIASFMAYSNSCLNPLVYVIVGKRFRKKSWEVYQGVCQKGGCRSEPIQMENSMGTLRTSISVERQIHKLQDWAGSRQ

[5] = DRUGMATRIX: Sigma2 radioligand binding (ligand: [3H] Ifenprodil); assay type: cell membranes, Rattus norvegicus, Wistar, Brain, Membrane; conditions: Not Active = under 50% inhibition at 10 µM
[6] = target: Mitogen-activated protein kinase 3 (Homo sapiens, UniProt P27361); assay: DRUGMATRIX: Protein Serine/Threonine Kinase, ERK1 enzyme inhibition (substrate: Myelin Basic Protein); parameters: species or system Escherichia coli; conditions: Not Active = under 50% inhibition at 10 µM
Sequence of Mitogen-activated protein kinase 3 (P27361 whole entry): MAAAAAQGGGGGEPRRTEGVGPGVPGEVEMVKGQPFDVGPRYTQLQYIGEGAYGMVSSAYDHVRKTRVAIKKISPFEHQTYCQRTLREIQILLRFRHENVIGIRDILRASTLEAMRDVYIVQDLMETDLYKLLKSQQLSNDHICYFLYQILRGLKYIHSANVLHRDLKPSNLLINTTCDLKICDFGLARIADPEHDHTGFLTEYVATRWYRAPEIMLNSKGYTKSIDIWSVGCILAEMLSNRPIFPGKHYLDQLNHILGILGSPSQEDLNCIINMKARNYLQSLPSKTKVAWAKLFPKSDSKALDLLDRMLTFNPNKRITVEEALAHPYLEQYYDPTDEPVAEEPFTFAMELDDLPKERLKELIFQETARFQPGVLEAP

[7] = target: Cytochrome P450 3A4 (Homo sapiens, UniProt P08684); conditions: bti-tn-5b1-4; note: in other assays of this panel Not Active means under 50% inhibition at 10 µM
Sequence of Cytochrome P450 3A4 (P08684 whole entry): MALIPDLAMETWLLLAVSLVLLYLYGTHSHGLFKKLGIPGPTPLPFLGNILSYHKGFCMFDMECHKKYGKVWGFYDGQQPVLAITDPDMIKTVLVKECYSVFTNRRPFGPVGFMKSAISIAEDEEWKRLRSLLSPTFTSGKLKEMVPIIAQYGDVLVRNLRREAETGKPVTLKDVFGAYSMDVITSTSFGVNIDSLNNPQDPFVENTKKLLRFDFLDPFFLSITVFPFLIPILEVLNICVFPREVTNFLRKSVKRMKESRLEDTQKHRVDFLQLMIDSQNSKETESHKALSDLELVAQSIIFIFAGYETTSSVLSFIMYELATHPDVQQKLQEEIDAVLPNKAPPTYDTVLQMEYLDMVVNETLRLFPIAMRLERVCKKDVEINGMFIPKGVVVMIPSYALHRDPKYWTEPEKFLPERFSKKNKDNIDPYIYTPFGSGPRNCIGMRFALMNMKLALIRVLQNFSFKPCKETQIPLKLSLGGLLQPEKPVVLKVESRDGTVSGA

[8] = target: T4, Receptor-type tyrosine-protein phosphatase C (Homo sapiens, UniProt P08575); parameters: species or system Escherichia coli;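 note: inhibition of CD45 enzyme activity measured using DiFMUP as substrate; in other assays of this panel Not Active means under 50% inhibition at 10 µM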
T4 sequence (P08575 whole entry): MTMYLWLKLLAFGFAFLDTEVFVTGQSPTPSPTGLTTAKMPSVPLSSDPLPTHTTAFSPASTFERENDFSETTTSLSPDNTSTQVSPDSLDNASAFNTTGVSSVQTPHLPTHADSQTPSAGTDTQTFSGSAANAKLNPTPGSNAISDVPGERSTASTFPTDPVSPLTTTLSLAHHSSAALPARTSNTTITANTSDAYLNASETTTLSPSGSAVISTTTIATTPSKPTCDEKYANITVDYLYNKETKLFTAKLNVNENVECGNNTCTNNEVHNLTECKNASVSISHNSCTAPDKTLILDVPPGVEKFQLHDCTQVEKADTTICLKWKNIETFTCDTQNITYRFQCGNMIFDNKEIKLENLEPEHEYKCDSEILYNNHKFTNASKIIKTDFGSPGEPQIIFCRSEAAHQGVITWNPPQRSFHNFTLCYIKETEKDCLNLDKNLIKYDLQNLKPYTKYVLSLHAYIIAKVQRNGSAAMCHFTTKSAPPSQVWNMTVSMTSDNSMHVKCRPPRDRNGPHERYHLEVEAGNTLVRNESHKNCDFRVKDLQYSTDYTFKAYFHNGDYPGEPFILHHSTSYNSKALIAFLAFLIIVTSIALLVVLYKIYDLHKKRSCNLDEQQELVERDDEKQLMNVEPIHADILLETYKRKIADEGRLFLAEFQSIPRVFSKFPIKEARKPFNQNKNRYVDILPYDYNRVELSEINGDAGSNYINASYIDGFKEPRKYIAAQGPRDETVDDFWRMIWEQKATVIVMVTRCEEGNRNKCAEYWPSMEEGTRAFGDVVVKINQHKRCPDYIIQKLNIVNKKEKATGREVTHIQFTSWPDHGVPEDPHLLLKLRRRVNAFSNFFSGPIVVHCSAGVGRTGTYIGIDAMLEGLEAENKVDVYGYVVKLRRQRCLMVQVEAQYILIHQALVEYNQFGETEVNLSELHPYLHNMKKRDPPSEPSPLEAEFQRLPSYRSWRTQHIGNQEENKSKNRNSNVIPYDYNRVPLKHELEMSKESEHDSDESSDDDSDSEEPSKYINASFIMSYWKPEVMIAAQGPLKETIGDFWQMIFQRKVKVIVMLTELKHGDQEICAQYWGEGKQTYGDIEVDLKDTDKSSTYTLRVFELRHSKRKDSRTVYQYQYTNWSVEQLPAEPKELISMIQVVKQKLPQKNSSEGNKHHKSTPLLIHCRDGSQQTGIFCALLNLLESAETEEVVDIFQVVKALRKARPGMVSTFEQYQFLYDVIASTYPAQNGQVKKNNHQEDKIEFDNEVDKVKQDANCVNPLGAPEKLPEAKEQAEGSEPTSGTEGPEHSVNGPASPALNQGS

[9] = DRUGMATRIX: Imidazoline I2, Central radioligand binding (ligand: [3H] Idazoxan); assay type: cell membranes, Rattus norvegicus, Wistar, Cerebral cortex, Membrane; conditions: Not Active = under 50% inhibition at 10 µM
[10] = target: Beta-1 adrenergic receptor (Homo sapiens, UniProt P08588); assay: DRUGMATRIX: Adrenergic beta1 radioligand binding (ligand: [125I] Cyanopindolol); assay type: cell membranes, CHO-K1, Membrane; conditions: cho-k1; Not Active = under 50% inhibition at 10 µM
Sequence of Beta-1 adrenergic receptor (P08588 whole entry): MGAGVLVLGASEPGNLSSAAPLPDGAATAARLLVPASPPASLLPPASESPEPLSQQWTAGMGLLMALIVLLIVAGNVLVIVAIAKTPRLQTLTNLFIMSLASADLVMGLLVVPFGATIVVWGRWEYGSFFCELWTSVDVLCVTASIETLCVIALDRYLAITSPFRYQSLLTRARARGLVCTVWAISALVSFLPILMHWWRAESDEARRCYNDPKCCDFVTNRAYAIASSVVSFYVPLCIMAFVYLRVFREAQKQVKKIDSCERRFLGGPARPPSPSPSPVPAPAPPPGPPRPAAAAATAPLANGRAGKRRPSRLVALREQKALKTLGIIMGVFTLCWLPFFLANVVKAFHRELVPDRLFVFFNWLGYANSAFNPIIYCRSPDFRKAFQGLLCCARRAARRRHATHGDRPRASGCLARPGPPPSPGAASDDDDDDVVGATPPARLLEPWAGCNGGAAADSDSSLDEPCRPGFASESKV

CNC(=C[N+](=O)[O-])NCCSCc1ccc(CN(C)C)o1 [RANITIDINE]
Not Active: IC50 [1] | Ki [1] | IC50 [2] | IC50 [3] | IC50 [4] | IC50 [5] | Ki [5] | IC50 [6] | IC50 [7] | Ki [7] | IC50 [8] | IC50 [9] | Ki [9] | IC50 [10]

CO[C@H]1/C=C/O[C@@]2(C)Oc3c(C)c(O)c4c(c3C2=O)C2=NC3(CCN(CC(C)C)CC3)NC2=C(NC(=O)/C(C)=C\C=C\[C@H](C)[C@H](O)[C@@H](C)[C@@H](O)[C@@H](C)[C@H](OC(C)=O)[C@@H]1C)C4=O [RIFABUTIN]
Not Active: IC50 [1] | Ki [1] | IC50 [2] | IC50 [3] | IC50 [4] | IC50 [5] | Ki [5] | IC50 [6] | IC50 [7] | Ki [7] | IC50 [8] | IC50 [9] | Ki [9] | IC50 [10]

CC(C)CC(N(C)C)C1(c2ccc(Cl)cc2)CCC1 (stereo not drawn) [SIBUTRAMINE]
Not Active: IC50 [1] | Ki [1] | IC50 [2] | IC50 [3] | IC50 [4] | IC50 [5] | Ki [5] | IC50 [6] | IC50 [7] | Ki [7] | IC50 [8] | IC50 [9] | Ki [9] | IC50 [10]

[H]/N=C(/N)N[C@H]1[C@H](O)[C@@H](O)[C@H](O[C@@H]2O[C@@H](C)[C@](O)(C=O)[C@H]2O[C@@H]2O[C@@H](CO)[C@H](O)[C@@H](O)[C@@H]2NC)[C@@H](N/C(N)=N\[H])[C@@H]1O [STREPTOMYCIN]
Not Active: IC50 [1] | Ki [1] | IC50 [2] | IC50 [3] | IC50 [4] | IC50 [5] | Ki [5] | IC50 [6] | IC50 [7] | Ki [7] | IC50 [8] | IC50 [9] | Ki [9] | IC50 [10]

COc1cc(NS(=O)(=O)c2ccc(N)cc2)nc(OC)n1 [SULFADIMETHOXINE]
Not Active: IC50 [1] | Ki [1] | IC50 [2] | IC50 [3] | IC50 [4] | IC50 [5] | Ki [5] | IC50 [6] | IC50 [7] | Ki [7] | IC50 [8] | IC50 [9] | Ki [9] | IC50 [10]

Cc1cc(C)nc(NS(=O)(=O)c2ccc(N)cc2)n1 [SULFAMETHAZINE]
Not Active: IC50 [1] | Ki [1] | IC50 [2] | IC50 [3] | IC50 [4] | IC50 [5] | Ki [5] | IC50 [6] | IC50 [7] | Ki [7] | IC50 [8] | IC50 [9] | Ki [9] | IC50 [10]

C[C@]1(Cn2ccnn2)[C@H](C(=O)O)N2C(=O)C[C@H]2S1(=O)=O [TAZOBACTAM]
Not Active: IC50 [1] | Ki [1] | IC50 [2] | IC50 [3] | IC50 [4] | IC50 [5] | Ki [5] | IC50 [6] | IC50 [7] | Ki [7] | IC50 [8] | IC50 [9] | Ki [9] | IC50 [10]

CN1C(C(=O)Nc2ccccn2)=C(O)c2sccc2S1(=O)=O [TENOXICAM]
Not Active: IC50 [1] | Ki [1] | IC50 [2] | IC50 [3] | IC50 [4] | IC50 [5] | Ki [5] | IC50 [6] | IC50 [7] | Ki [7] | IC50 [8] | IC50 [9] | Ki [9] | IC50 [10]

CC(C)(C)c1ccc(C(O)CCCN2CCC(C(O)(c3ccccc3)c3ccccc3)CC2)cc1 (stereo not drawn) [TERFENADINE]
Not Active: IC50 [1] | Ki [1] | IC50 [2] | IC50 [3] | IC50 [4] | IC50 [5] | Ki [5] | IC50 [6] | IC50 [7] | Ki [7] | IC50 [8] | IC50 [9] | Ki [9] | IC50 [10]

O=C1CCC(N2C(=O)c3ccccc3C2=O)C(=O)N1 (stereo not drawn) [THALIDOMIDE]
Not Active: IC50 [1] | Ki [1] | IC50 [2] | IC50 [3] | IC50 [4] | IC50 [5] | Ki [5] | IC50 [6] | IC50 [7] | Ki [7] | IC50 [8] | IC50 [9] | Ki [9] | IC50 [10]

Cc1cccc(Nc2ccncc2S(=O)(=O)NC(=O)NC(C)C)c1 [TORSEMIDE]
Not Active: IC50 [1] | Ki [1] | IC50 [2] | IC50 [3] | Ki [4] | IC50 [5] | Ki [5] | IC50 [6] | IC50 [7] | Ki [7] | IC50 [8] | IC50 [9] | Ki [9] | IC50 [10]

CC(C)C[C@H](NC(=O)[C@@H](O)[C@H](N)Cc1ccccc1)C(=O)O [UBENIMEX]
Not Active: IC50 [1] | Ki [1] | IC50 [2] | IC50 [3] | IC50 [4] | IC50 [5] | Ki [5] | IC50 [6] | IC50 [7] | Ki [7] | IC50 [8] | IC50 [9] | Ki [9] | IC50 [10]
